Assay results: US20120010254A1 (priority 2008, published 2012)
pEC50, pIC50, pKi: −log10 of the molar value. Where a name gives a salt, the structure may show the parent alone. Read-outs that look alike come from different tables or passages of the source.

Legend:
[1] = tested on: avian influenza virus H5N1; details: literature value, Li et al. ref. 12; read-out: EC50 value against avian influenza virus H5N1; cited from earlier work
[2] = target: influenza virus sialidase (N1) (Influenza A virus, UniProt Q9WAA1); assay: biochemical
influenza virus sialidase (N1), sequence (Q9WAA1 whole entry, looked up): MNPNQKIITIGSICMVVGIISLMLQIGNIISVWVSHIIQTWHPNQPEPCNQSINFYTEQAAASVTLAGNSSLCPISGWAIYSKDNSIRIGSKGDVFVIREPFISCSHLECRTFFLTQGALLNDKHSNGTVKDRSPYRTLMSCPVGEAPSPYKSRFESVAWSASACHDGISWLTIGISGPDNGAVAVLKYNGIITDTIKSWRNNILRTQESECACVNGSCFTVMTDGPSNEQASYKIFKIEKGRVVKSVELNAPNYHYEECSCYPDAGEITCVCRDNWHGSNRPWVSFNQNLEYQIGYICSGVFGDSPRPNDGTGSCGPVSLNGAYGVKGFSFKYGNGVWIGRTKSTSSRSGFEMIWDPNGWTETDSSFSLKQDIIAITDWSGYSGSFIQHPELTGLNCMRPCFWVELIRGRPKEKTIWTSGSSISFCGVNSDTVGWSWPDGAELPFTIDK

CC(=O)N[C@H]1[C@H]([C@H](O)[C@H](O)CO)OC(C(=O)O)=C[C@@H]1NC(=N)N [4-deoxy-4-guanidino-Neu5Ac2en]
pEC50 [1]: 5.55

CCC(CC)OC1CC(C(=O)O)=CC(N)C1NC(C)=O (centres unmarked) [Compound 38, 4-Acetylamino-3-amino-5-(1-ethyl-propoxy)-cyclohex-1-enecarboxylic acid, reference compound]
pKi [2]: 7.70

4-Acetylamino-3-[4-((17α)-estra-1,3,5(10)-triene-3,17-dihydroxy-17-yl)-[1,2,3]triazol-1-yl]-5-(1-ethyl-propoxy)-cyclohex-1-enecarboxylic acid L-arginine salt [Compound 44]
pKi ([2]; read-out: Ki): 4.23

CCC(CC)OC1CC(C(=O)O)=CC(n2cc(C3(O)CCCCC3)nn2)C1NC(C)=O (centres unmarked) [Compound 5, 4-Acetylamino-5-(1-ethyl-propoxy)-3-[4-(1-hydroxy-cyclohexyl)-[1,2,3]triazol-1-yl]-cyclohex-1-enecarboxylic acid]
pIC50 [2]: 4.32 | Inhibitory activity in words [2]: less effective as inhibitors

CCC(O)c1cn([C@H]2C=C(C(=O)O)O[C@@H]([C@H](O)[C@H](O)CO)[C@@H]2NC(C)=O)nn1 (some centres unmarked) [formula (B)]
pEC50 [1]: 5.19

CCC(CC)OC1CC(C(=O)O)=CC(NC(=N)N)C1NC(C)=O (centres unmarked) [Compound 39, 4-Acetylamino-5-(1-ethyl-propoxy)-3-guanidino-cyclohex-1-enecarboxylic acid Trifluoroacetate salt]
pKi [2]: 8.32

CCC(CC)OC1CC(C(=O)O)=CC(n2cc(C(O)CC)nn2)C1NC(C)=O (centres unmarked) [Compound 2, 4-Acetylamino-5-(1-ethyl-propoxy)-3-[4-(1-hydroxy-propyl)-[1,2,3]triazol-1-yl]-cyclohex-1-enecarboxylic acid]
pKi [2]: 6.15

CCC(CC)OC1CC(C(=O)O)=CC(n2cc(CCCO)nn2)C1NC(C)=O (centres unmarked) [Compound 1, 4-Acetylamino-5-(1-ethyl-propoxy)-3-[4-(3-hydroxy-propyl)-[1,2,3]triazol-1-yl]-cyclohex-1-enecarboxylic acid]
pKi [2]: 5.30

CC(=O)N[C@H]1[C@H]([C@H](O)[C@H](O)CO)OC(C(=O)O)=C[C@@H]1N [4-amino-4-deoxy-Neu5Ac2en, reference compound]
pKi ([2]; read-out: Ki): 8.00

CCC(CC)OC1CC(C(=O)O)=CC(n2cc(C(C)(C)O)nn2)C1NC(C)=O (centres unmarked) [Compound 3, 4-Acetylamino-5-(1-ethyl-propoxy)-3-[4-(1-hydroxy-1-methyl-ethyl)-[1,2,3]triazol-1-yl]-cyclohex-1-enecarboxylic acid]
pKi [2]: 5.70

CCC(CC)OC1CC(C(=O)O)=CC(n2cc(CCc3ccccc3)nn2)C1NC(C)=O [Compound 43, 4-Acetylamino-5-(1-ethyl-propoxy)-3-(4-phenethyl-[1,2,3]triazol-1-yl)-cyclohex-1-enecarboxylic acid L-arginine salt]
pKi [2]: 4.92

CCC(CC)OC1CC(C(=O)O)=CC(n2cc(C3(O)CCCC3)nn2)C1NC(C)=O (centres unmarked) [Compound 6, 4-Acetylamino-5-(1-ethyl-propoxy)-3-[4-(1-hydroxy-cyclopentyl)-[1,2,3]triazol-1-yl]-cyclohex-1-enecarboxylic acid]
pIC50 [2]: 3.96 | Inhibitory activity in words [2]: less effective as inhibitors
